Data as given in patent publication US6683114B2, “Treatment of psoriasis” (Eli Lilly and Company, priority 2000, dated 2004).
Where a name gives a salt, the structure may show the parent alone.

Test system: plaque-like psoriasis
Assay: Treatment of a subject with moderately severe plaque-like psoriasis (case report, Example 1)
Format: in vivo, human
Details: person, plaque-like psoriasis of legs; 60 mg twice daily for 12 consecutive days
Procedure: The subject presented with moderately severe plaque-like psoriasis of their legs. The subject had suffered from psoriasis for most of their life, and the condition had worsened immediately prior to the present study. […] The subject was treated with 60 mg of tomoxetine hydrochloride, twice daily for 12 consecutive days.

CNCC[C@@H](Oc1ccccc1C)c1ccccc1 [tomoxetine hydrochloride, (R)-(−)-N-methyl-3-(2-methylphenoxy)-3-phenylpropylamine]
Clinical outcome of psoriasis lesions at final assessment: significant improvement
